Measurements published in publication PMC3479967 (Evidence-based Complementary and Alternative Medicine : eCAM, 2012).

Columns and labels:
UGT1A8 = target: T1, UGT1A8 (Homo sapiens, UniProt Q9HAW9); experiment: Inhibition of recombinant UGT1A8 activity (4-MU glucuronidation)
T1 sequence (Q9HAW9 26-530): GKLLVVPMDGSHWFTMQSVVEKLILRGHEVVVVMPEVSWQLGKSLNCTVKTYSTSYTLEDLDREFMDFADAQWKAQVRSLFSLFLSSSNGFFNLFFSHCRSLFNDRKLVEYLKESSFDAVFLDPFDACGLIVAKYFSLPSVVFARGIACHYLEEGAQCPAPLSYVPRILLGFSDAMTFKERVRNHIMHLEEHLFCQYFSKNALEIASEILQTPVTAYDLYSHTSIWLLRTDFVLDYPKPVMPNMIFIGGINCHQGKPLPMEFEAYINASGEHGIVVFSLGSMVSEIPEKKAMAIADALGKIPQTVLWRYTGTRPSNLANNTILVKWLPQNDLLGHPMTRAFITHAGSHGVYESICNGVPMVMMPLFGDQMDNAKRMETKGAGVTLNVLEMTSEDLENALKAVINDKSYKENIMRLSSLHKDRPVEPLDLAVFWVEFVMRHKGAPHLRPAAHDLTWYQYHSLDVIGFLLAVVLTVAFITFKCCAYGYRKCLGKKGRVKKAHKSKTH
Method: (§1) A panel of recombinant human UGT supersomes (UGT1A1, UGT1A3, UGT1A4, UGT1A6, UGT1A7, UGT1A8, UGT1A9, UGT1A10, UGT2B4, UGT2B7, UGT2B15, and UGT2B17) expressed in baculovirus-infected insect cells were purchased from BD Gentest Corp. (Woburn, MA, USA).
(§2) 4-MU, a nonselective substrate of UGTs, was used as probe substrate for all UGTs except UGT1A4. Incubations with each individual enzyme were conducted using conditions previously described. There was a 5 min preincubation step at 37°C before the reaction was started by addition of UDPGA. The incubation mixtures were then centrifuged at 20,500 ×g for 15 min to obtain the supernatant. Aliquots (20 μL) were then analyzed by HPLC. The HPLC system (SHIMADZU, Kyoto, Japan) consisted of an SCL-10A system controller, two LC-10AT pumps, a SIL-10A auto injector, and a SPD-10AVP UV detector. Chromatographic separation was achieved using a Kromasil ODS column (4.6 × 150 mm I.D., 5 μm particle size) at a flow rate of 1 mL/min and UV detection at 316 nm. The mobile phase consisted of 10 mM KH2PO4, pH 2.7 (A) and acetonitrile (B). The following gradient was applied at a flow rate of 1 mL/min: 0–4 min 80% A and 20% B, 4.1–8 min 50% A and 50% B, 8.1–12 min, 30% A and 70% B. All experiments were performed in two independent experiments in duplicate.
(§3) A typical incubation mixture contained recombinant human UGTs, 5 mM MgCl2, 5 mM UDPGA, 50 μg/mg protein alamethicin, 50 mM Tris-HCl buffer (pH 7.4), and various probe substrates of UGTs in the absence or presence of different concentrations of inhibitors. […] The final concentration of DMSO in the incubation system was 1% (v/v). […]
(§4) Inhibition data from experiments were graphically represented by Dixon plots. K i values were calculated by nonlinear regression using the equations for competitive inhibition (1), noncompetitive inhibition (2), or mixed inhibition (3), [22] […] The type of inhibition was determined from the enzyme inhibition models. Goodness of fit to kinetic and inhibition models was assessed from the F statistic, r ^2 values, parameter standard error estimates, and 95% confidence intervals. […]

UGT2B15 = target: T2, UGT2B15 (Homo sapiens, UniProt P54855); experiment: Inhibition of recombinant UGT2B15 activity (4-MU glucuronidation)
T2 sequence (P54855 24-530): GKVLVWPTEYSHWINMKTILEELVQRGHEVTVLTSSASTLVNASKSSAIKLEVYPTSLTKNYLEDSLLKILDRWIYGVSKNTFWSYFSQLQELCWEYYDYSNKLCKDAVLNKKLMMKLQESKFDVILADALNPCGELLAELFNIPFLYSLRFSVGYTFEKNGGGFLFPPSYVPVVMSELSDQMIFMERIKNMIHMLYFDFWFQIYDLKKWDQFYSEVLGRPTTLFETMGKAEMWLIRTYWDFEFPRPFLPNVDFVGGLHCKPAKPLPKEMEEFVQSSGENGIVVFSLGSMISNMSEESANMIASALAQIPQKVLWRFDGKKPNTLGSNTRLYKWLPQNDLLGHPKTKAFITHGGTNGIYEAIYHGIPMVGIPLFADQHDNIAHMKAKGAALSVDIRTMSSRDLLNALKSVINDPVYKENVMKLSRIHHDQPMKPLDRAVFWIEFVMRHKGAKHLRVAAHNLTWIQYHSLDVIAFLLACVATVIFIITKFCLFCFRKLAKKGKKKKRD
Method: as §1, §2, §3, §4

| Compound | IC50 (UGT1A8) | IC50 (UGT2B15) |
| --- | --- | --- |
| COc1ccc(-c2oc3c(CC=C(C)C)c(O[C@@H]4O[C@H](CO)[C@@H](O)[C@H](O)[C@H]4O)cc(O)c3c(=O)c2O[C@@H]2O[C@@H](C)[C@H](O)[C@@H](O)[C@H]2O)cc1 [Icariin] | > 100 µM | > 100 µM |
| COc1ccc(-c2oc3c(CC=C(C)C)c(O)cc(O)c3c(=O)c2O)cc1 [Icaritin] | > 100 µM | > 100 µM |
| COc1ccc(-c2oc3c(CC=C(C)C)c(O[C@@H]4O[C@H](CO)[C@@H](O)[C@H](O)[C@H]4O)cc(O)c3c(=O)c2O)cc1 [Icariside I] | > 100 µM | > 100 µM |
